Data as given in PubChem BioAssay AID248 (DTP/NCI, 2004).
“And” between values parts separate entries of the source, which are not always exact repeats. Identical values can stand only once. Inconclusive results and toxic doses are left out. Rule as the data show it: active = T/C of 150% or more; inactive = T/C below 125%.

Tested on: L1210 leukemia ip in BDF1 mice, survival T/C
Test: NCI In Vivo Anticancer Drug Screen. Data for tumor model L1210 Leukemia (intraperitoneal) in B6D2F1 (BDF1) mice
Conditions: endpoint: mean survival time, higher = longer survival
Outline: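 Tumor was transplanted into mice, which were then dosed with test compound or vehicle alone. Survival was recorded for each group, and the treated figure was expressed relative to the control figure.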

[1] = dose: 100.0 mg/kg/injection, schedule: Q04DX002 (ip), vehicle: Klucel (hydroxypropylcellulose) (HPC)
[2] = dose: 200.0 mg/kg/injection, schedule: Q04DX002 (ip), vehicle: Klucel (hydroxypropylcellulose) (HPC)
[3] = dose: 400.0 mg/kg/injection, schedule: Q04DX002 (ip), vehicle: Klucel (hydroxypropylcellulose) (HPC)
[4] = dose: 25.0 mg/kg/injection, schedule: Q01DX009 (ip), vehicle: saline with Tween-80
[5] = dose: 50.0 mg/kg/injection, schedule: Q01DX009 (ip), vehicle: saline with Tween-80
[6] = dose: 100.0 mg/kg/injection, schedule: Q01DX009 (ip), vehicle: saline with Tween-80
[7] = dose: 100.0 mg/kg/injection, schedule: Q04DX003 (ip), vehicle: saline with Tween-80
[8] = dose: 50.0 mg/kg/injection, schedule: Q01DX009 (ip), vehicle: saline
[9] = dose: 100.0 mg/kg/injection, schedule: Q01DX009 (ip), vehicle: saline
[10] = dose: 100.0 mg/kg/injection, schedule: Q04DX003 (ip), vehicle: saline
[11] = dose: 200.0 mg/kg/injection, schedule: Q01DX009 (ip), vehicle: saline with Tween-80
[12] = dose: 400.0 mg/kg/injection, schedule: Q01DX009 (ip), vehicle: saline with Tween-80
[13] = dose: 100.0 mg/kg/injection, schedule: Q01DX001 (ip), vehicle: carboxymethylcellulose (CMC)
[14] = dose: 200.0 mg/kg/injection, schedule: Q01DX001 (ip), vehicle: carboxymethylcellulose (CMC)
[15] = dose: 400.0 mg/kg/injection, schedule: Q01DX001 (ip), vehicle: carboxymethylcellulose (CMC)
[16] = dose: 25.0 mg/kg/injection, schedule: Q04DX002 (ip), vehicle: saline
[17] = dose: 50.0 mg/kg/injection, schedule: Q04DX002 (ip), vehicle: saline
[18] = dose: 100.0 mg/kg/injection, schedule: Q04DX002 (ip), vehicle: saline
[19] = dose: 200.0 mg/kg/injection, schedule: Q04DX002 (ip), vehicle: saline
[20] = dose: 400.0 mg/kg/injection, schedule: Q04DX002 (ip), vehicle: saline
[21] = dose: 200.0 mg/kg/injection, schedule: Q04DX003 (ip), vehicle: saline
[22] = dose: 400.0 mg/kg/injection, schedule: Q04DX003 (ip), vehicle: saline
[23] = dose: 100.0 mg/kg/injection, schedule: Q01DX001 (ip), vehicle: Klucel (hydroxypropylcellulose) (HPC)
[24] = dose: 200.0 mg/kg/injection, schedule: Q01DX001 (ip), vehicle: Klucel (hydroxypropylcellulose) (HPC)
[25] = dose: 400.0 mg/kg/injection, schedule: Q01DX001 (ip), vehicle: Klucel (hydroxypropylcellulose) (HPC)
[26] = dose: 100.0 mg/kg/injection, schedule: Q01DX001 (ip), vehicle: saline
[27] = dose: 200.0 mg/kg/injection, schedule: Q01DX001 (ip), vehicle: saline
[28] = dose: 200.0 mg/kg/injection, schedule: Q01DX009 (ip), vehicle: saline
[29] = dose: 400.0 mg/kg/injection, schedule: Q01DX009 (ip), vehicle: saline

Measured: T/C

O=S1(=O)CC(N2CCCCC2)C12CC1c3ccccc3C2c2ccccc21 (configuration not stated)
inactive: [1] 104 % of control | [2] 101 % of control | [3] 101 % of control

COC(=O)/C(=C1/OC(=O)C(c2ccccc2)=C1O)c1ccccc1
inactive: [4] 93 % of control | [5] 95 % of control | [6] 93 % of control | [7] 100 % of control

N#CCCNc1ccc(NC(=O)C(F)(F)F)cc1
inactive: dose: 25.0 mg/kg/injection, schedule: Q01DX009 (ip), vehicle: saline 92 % of control | [8] 92 % of control | [9] 94 % of control | [10] 87 % of control

O=C(COc1ccc(Cl)cc1)c1ccccc1
inactive: [6] 99 % of control | [11] 87 % of control | [12] 100 % of control

CC1=CC(=O)C(c2ccc(O)cc2O)=CC1=O
inactive: dose: 75.0 mg/kg/injection, schedule: Q01DX001 (ip), vehicle: other 101 % of control

CN(C(=O)N(CCCl)N=O)c1ccccc1
inactive: [13] 104 % of control | [14] 104 % of control | [15] 105 % of control

Cc1ccc(CS(=O)C(Cl)(Cl)c2ccc(C)cc2)cc1 (configuration not stated)
inactive: [1] 97 % of control | [2] 94 % of control | [3] 97 % of control

CSC1C(OC(=O)c2ccccc2)C(COC(=O)c2ccccc2)OC1n1cnc2ncnc(NC(=O)c3ccccc3)c21 (configuration not stated)
inactive: dose: 100.0 mg/kg/injection, schedule: Q01DX005 (ip), vehicle: saline 100 % of control | dose: 200.0 mg/kg/injection, schedule: Q01DX005 (ip), vehicle: saline 92 % of control

CCCCCCCC(=O)N(CC)CC
inactive: [16] 103 % of control | [8] 97 % of control | [17] 103 % of control | [9] 101 % of control | [18] 100 % of control | [19] 100 % of control and 102 % of control | [20] 102 % of control

CN(C)C(=O)C1C2CC3OC(=O)C1C3C2 (configuration not stated)
inactive: [10] 100 % of control and 104 % of control | [21] 94 % of control and 108 % of control | [22] 100 % of control and 104 % of control

COC(=S)SCN(CSC(=S)OC)c1ccccc1Cl
inactive: dose: 50.0 mg/kg/injection, schedule: Q01DX001 (ip), vehicle: Klucel (hydroxypropylcellulose) (HPC) 111 % of control | [23] 101 % of control | dose: 100.0 mg/kg/injection, schedule: Q01DX009 (ip), vehicle: Klucel (hydroxypropylcellulose) (HPC) 109 % of control | dose: 100.0 mg/kg/injection, schedule: Q04DX003 (ip), vehicle: Klucel (hydroxypropylcellulose) (HPC) 103 % of control | [24] 103 % of control | dose: 200.0 mg/kg/injection, schedule: Q01DX009 (ip), vehicle: Klucel (hydroxypropylcellulose) (HPC) 109 % of control | dose: 200.0 mg/kg/injection, schedule: Q04DX003 (ip), vehicle: Klucel (hydroxypropylcellulose) (HPC) 95 % of control | [25] 98 % of control | dose: 400.0 mg/kg/injection, schedule: Q01DX009 (ip), vehicle: Klucel (hydroxypropylcellulose) (HPC) 109 % of control | dose: 400.0 mg/kg/injection, schedule: Q04DX003 (ip), vehicle: Klucel (hydroxypropylcellulose) (HPC) 103 % of control

CCOC(=O)c1[nH]cnc1/N=N/N(C)C1CCCCC1
inactive: dose: 85.0 mg/kg/injection, schedule: Q01DX015 (ip), vehicle: carboxymethylcellulose (CMC) 103 % of control | [13] 98 % of control | dose: 114.0 mg/kg/injection, schedule: Q01DX015 (ip), vehicle: carboxymethylcellulose (CMC) 107 % of control | [14] 109 % of control | [15] 102 % of control

Nc1cccc(/C=C/c2ccc([N+](=O)[O-])cc2)c1
inactive: [23] 91 % of control | [24] 87 % of control | [25] 94 % of control

CC/C=C(CC)/C(=C/CC)CC
inactive: [26] 97 % of control | [9] 98 % of control | [27] 105 % of control | [28] 96 % of control | dose: 400.0 mg/kg/injection, schedule: Q01DX001 (ip), vehicle: saline 102 % of control

CN(C)CCSCC(OC(=O)c1ccccc1)c1ccccc1 (configuration not stated)
inactive: [7] 94 % of control

CCOC(=O)c1ccc[n+]([O-])c1
inactive: [10] 94 % of control | [21] 95 % of control | [22] 94 % of control

C=C(C)C1CNC(C(=O)O)C1CC(=O)O (configuration not stated)
inactive: dose: 6.25 mg/kg/injection, schedule: Q01DX009 (ip), vehicle: saline sonified 102 % of control | dose: 12.5 mg/kg/injection, schedule: Q01DX009 (ip), vehicle: saline sonified 86 % of control

Cc1cc(=O)[nH]c(Nc2ccccc2)n1
inactive: [6] 90 % of control | [11] 93 % of control | [12] 90 % of control

O=C(CC(=O)C(F)(F)C(F)(F)C(F)(F)F)c1csc2ccccc12
inactive: dose: 8.0 mg/kg/injection, schedule: Q01DX015 (ip), vehicle: saline 87 % of control | dose: 12.5 mg/kg/injection, schedule: Q01DX009 (ip), vehicle: saline with Tween-80 109 % of control | dose: 16.0 mg/kg/injection, schedule: Q01DX015 (ip), vehicle: saline 87 % of control | [4] 108 % of control | dose: 32.0 mg/kg/injection, schedule: Q01DX015 (ip), vehicle: saline 87 % of control | [5] 96 % of control | dose: 50.0 mg/kg/injection, schedule: Q04DX003 (ip), vehicle: acetone 101 % of control | [26] 104 % of control | [27] 102 % of control

Cc1cc(Cl)c(Cl)cc1NC(=O)c1ccccc1Cl
inactive: [1] 97 % of control | [2] 97 % of control | [3] 94 % of control

CCC(SC(C)=O)C(=O)O (configuration not stated)
inactive: [8] 96 % of control | [9] 91 % of control | [10] 89 % of control | [28] 91 % of control | [21] 96 % of control

O=C(N/N=C/c1ccc([N+](=O)[O-])s1)c1ccccc1O
inactive: [10] 94 % of control | [21] 100 % of control | [22] 97 % of control

Nc1ccc(CCC(=O)NC(CCC(=O)O)C(=O)O)cc1 (configuration not stated)
inactive: [9] 102 % of control | [18] 98 % of control | [28] 108 % of control | [19] 105 % of control | [29] 96 % of control | [20] 94 % of control

CC(=O)OC1CCC2(C)C(=CC(=O)C3=C2CCC2(C)C3CCC2C(C)/C=C/C(C)C(C)C)C1 (configuration not stated)
inactive: [9] 92 % of control | [10] 88 % of control | [28] 95 % of control | [21] 97 % of control | [29] 92 % of control | [22] 91 % of control

O=C(/C=C/c1ccc2c(c1)OCO2)c1ccc(OCc2ccccc2)cc1
inactive: [16] 111 % of control | [17] 108 % of control | [18] 118 % of control | [19] 96 % of control | [20] 92 % of control
